According to PMC11167047 (Cell Death Discovery, 2024):

Columns and labels:
Assay in all cases: kinome screen (33PanQinase)
Assay type in all cases: biochemical
BMPR1B = biological target: T1, BMPR1B (Homo sapiens, UniProt O00238)
T1 construct: purchased Reaction Biology Europe GmbH (formerly ProQinase)
Procedure: (§1) The Kinome Screening was performed by Reaction Biology Europe GmbH (http://reactionbiology.com; Freiburg i. Br., Germany).

CDC42BPA = biological target: T2, CDC42BPA (Homo sapiens, UniProt Q5VT25)
T2 construct: purchased Reaction Biology Europe GmbH (formerly ProQinase)
Procedure: as §1

CK1Δ = biological target: T3, CK1Δ (Homo sapiens, UniProt P48730)
T3 construct: purchased Reaction Biology Europe GmbH (formerly ProQinase)
Procedure: as §1

CLK1 = biological target: T4, CLK1 (Homo sapiens, UniProt P49759)
T4 construct: purchased Reaction Biology Europe GmbH (formerly ProQinase)
Procedure: as §1

ERBB4 = biological target: T5, ERBB4 (Homo sapiens, UniProt Q15303)
T5 construct: purchased Reaction Biology Europe GmbH (formerly ProQinase)
Procedure: as §1

FES = biological target: T6, FES (Homo sapiens, UniProt P07332)
T6 construct: purchased Reaction Biology Europe GmbH (formerly ProQinase)
Procedure: as §1

GRK2 = biological target: T7, GRK2 (Homo sapiens, UniProt P25098)
T7 construct: purchased Reaction Biology Europe GmbH (formerly ProQinase)
T7 sequence (P25098 1-689): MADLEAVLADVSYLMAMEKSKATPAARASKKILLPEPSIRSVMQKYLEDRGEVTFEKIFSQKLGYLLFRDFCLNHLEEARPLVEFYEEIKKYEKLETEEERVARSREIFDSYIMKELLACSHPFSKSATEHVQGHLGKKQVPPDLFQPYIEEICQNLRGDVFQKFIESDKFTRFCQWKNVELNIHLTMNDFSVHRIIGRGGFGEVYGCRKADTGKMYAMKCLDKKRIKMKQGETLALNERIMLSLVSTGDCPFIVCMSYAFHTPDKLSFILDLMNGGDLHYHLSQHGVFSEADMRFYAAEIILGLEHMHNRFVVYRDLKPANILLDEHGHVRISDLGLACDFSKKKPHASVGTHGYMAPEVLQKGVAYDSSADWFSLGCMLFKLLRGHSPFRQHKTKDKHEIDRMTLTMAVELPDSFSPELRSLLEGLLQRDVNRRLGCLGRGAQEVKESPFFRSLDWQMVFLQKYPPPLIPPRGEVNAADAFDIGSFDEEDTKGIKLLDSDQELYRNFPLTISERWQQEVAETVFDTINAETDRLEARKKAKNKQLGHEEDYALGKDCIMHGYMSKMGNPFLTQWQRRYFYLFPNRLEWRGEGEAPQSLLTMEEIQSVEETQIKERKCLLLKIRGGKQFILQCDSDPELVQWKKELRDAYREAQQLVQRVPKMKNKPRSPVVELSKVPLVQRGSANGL
Procedure: as §1

GRK6 = biological target: T8, GRK6 (Homo sapiens, UniProt P43250)
T8 construct: purchased Reaction Biology Europe GmbH (formerly ProQinase)
Procedure: as §1

LRRK2 = biological target: T9, LRRK2 (Homo sapiens, UniProt Q5S007)
T9 construct: purchased Reaction Biology Europe GmbH (formerly ProQinase)
Procedure: as §1

PKMYT1 = biological target: T10, PKMYT1 (Homo sapiens, UniProt Q99640)
T10 construct: purchased Reaction Biology Europe GmbH (formerly ProQinase)
T10 sequence (Q99640 1-499): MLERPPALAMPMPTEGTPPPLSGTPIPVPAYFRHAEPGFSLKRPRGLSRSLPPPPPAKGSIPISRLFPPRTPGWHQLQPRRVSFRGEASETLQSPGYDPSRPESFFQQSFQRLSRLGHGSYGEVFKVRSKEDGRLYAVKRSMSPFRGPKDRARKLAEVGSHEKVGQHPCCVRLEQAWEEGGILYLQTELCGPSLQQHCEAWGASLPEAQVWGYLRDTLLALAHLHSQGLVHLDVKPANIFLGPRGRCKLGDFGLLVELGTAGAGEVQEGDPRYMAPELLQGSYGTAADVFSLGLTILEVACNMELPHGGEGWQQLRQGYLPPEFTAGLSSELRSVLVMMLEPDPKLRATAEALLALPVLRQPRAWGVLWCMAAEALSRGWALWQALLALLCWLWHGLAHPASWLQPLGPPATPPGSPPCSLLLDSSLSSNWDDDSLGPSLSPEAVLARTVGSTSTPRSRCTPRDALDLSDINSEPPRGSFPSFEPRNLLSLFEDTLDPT
Procedure: as §1

PRK1 = biological target: T11, PRK1 (Homo sapiens, UniProt Q16512)
T11 construct: purchased Reaction Biology Europe GmbH (formerly ProQinase)
Procedure: as §1

VEGFR1 = biological target: T12, VEGFR1 (Homo sapiens, UniProt P17948)
T12 construct: purchased Reaction Biology Europe GmbH (formerly ProQinase)
Procedure: as §1

ZAP70 = biological target: T13, ZAP70 (Homo sapiens, UniProt P43403)
T13 construct: purchased Reaction Biology Europe GmbH (formerly ProQinase)
T13 sequence (P43403 1-619): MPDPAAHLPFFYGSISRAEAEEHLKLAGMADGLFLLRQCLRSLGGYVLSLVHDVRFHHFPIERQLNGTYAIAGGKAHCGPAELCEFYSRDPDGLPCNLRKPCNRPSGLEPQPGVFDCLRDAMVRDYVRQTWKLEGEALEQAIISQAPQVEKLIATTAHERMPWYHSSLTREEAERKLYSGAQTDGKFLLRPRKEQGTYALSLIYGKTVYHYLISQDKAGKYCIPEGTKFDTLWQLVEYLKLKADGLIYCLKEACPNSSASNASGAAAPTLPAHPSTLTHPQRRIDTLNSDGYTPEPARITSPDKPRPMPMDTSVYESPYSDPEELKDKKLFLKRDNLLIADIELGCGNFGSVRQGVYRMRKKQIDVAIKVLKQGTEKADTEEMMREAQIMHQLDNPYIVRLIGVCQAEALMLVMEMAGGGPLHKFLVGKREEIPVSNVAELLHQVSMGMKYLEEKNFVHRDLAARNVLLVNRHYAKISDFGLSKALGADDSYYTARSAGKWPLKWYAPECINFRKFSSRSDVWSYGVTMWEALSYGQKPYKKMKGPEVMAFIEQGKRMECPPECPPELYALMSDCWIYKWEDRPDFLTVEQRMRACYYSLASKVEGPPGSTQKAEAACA
Procedure: as §1

T4 sequence (P49759 whole entry): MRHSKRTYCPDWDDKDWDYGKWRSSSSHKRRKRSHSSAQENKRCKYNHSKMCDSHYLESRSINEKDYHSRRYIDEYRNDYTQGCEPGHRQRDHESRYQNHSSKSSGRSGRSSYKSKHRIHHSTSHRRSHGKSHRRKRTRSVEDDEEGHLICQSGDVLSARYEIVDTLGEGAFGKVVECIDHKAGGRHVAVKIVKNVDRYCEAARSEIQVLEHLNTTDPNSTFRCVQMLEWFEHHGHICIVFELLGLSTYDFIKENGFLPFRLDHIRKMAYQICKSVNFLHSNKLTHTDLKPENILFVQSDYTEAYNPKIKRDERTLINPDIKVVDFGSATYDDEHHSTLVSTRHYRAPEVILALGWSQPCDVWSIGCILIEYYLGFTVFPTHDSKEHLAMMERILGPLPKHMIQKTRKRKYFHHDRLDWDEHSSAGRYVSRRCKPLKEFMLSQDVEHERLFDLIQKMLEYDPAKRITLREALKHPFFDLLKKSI
T3 sequence (P48730 whole entry, stated change not applied): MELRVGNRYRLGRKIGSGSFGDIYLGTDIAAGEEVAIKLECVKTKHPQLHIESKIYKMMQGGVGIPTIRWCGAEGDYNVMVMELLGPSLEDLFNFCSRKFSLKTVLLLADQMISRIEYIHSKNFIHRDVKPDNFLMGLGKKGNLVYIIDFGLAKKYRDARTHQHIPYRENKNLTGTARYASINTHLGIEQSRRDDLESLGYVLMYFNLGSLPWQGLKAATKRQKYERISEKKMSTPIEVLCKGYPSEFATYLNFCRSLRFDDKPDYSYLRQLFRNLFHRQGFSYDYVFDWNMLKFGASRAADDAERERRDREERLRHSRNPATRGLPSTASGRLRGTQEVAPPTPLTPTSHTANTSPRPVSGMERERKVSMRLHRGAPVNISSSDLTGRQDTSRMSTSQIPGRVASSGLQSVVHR
T12 sequence (P17948 27-1338): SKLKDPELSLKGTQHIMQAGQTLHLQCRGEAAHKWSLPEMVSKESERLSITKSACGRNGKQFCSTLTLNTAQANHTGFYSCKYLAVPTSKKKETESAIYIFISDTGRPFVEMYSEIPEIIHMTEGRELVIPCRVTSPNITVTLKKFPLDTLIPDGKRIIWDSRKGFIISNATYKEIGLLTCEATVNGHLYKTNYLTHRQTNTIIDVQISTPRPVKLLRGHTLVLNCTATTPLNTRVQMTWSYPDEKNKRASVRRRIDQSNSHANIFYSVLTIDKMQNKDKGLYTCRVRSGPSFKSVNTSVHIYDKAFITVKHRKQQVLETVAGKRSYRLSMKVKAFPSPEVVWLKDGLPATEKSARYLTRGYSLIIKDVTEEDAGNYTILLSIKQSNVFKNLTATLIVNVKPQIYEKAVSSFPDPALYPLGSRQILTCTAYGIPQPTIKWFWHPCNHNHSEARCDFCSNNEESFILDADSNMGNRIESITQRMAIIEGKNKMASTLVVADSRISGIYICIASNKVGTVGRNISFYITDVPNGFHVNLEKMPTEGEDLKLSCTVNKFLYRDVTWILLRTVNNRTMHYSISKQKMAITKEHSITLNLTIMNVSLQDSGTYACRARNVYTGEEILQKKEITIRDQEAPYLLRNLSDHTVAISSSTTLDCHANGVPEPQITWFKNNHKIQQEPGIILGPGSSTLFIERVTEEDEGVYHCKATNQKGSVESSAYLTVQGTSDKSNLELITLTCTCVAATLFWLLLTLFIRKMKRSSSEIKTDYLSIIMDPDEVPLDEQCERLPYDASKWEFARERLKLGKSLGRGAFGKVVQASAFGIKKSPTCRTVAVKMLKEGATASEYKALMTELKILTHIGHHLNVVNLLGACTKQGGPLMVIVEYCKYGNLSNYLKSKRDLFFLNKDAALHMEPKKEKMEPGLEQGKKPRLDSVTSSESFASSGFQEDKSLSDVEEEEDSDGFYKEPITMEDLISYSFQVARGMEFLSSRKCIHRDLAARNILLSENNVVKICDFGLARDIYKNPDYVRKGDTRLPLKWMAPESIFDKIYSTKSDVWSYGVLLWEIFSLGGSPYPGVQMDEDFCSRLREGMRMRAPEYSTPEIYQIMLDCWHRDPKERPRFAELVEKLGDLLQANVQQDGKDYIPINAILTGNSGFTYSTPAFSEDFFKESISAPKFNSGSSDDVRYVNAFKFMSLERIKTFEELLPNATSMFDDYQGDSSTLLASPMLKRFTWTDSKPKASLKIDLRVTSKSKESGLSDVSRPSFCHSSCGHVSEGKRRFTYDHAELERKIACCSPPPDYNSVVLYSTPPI
T9 sequence (Q5S007 whole entry): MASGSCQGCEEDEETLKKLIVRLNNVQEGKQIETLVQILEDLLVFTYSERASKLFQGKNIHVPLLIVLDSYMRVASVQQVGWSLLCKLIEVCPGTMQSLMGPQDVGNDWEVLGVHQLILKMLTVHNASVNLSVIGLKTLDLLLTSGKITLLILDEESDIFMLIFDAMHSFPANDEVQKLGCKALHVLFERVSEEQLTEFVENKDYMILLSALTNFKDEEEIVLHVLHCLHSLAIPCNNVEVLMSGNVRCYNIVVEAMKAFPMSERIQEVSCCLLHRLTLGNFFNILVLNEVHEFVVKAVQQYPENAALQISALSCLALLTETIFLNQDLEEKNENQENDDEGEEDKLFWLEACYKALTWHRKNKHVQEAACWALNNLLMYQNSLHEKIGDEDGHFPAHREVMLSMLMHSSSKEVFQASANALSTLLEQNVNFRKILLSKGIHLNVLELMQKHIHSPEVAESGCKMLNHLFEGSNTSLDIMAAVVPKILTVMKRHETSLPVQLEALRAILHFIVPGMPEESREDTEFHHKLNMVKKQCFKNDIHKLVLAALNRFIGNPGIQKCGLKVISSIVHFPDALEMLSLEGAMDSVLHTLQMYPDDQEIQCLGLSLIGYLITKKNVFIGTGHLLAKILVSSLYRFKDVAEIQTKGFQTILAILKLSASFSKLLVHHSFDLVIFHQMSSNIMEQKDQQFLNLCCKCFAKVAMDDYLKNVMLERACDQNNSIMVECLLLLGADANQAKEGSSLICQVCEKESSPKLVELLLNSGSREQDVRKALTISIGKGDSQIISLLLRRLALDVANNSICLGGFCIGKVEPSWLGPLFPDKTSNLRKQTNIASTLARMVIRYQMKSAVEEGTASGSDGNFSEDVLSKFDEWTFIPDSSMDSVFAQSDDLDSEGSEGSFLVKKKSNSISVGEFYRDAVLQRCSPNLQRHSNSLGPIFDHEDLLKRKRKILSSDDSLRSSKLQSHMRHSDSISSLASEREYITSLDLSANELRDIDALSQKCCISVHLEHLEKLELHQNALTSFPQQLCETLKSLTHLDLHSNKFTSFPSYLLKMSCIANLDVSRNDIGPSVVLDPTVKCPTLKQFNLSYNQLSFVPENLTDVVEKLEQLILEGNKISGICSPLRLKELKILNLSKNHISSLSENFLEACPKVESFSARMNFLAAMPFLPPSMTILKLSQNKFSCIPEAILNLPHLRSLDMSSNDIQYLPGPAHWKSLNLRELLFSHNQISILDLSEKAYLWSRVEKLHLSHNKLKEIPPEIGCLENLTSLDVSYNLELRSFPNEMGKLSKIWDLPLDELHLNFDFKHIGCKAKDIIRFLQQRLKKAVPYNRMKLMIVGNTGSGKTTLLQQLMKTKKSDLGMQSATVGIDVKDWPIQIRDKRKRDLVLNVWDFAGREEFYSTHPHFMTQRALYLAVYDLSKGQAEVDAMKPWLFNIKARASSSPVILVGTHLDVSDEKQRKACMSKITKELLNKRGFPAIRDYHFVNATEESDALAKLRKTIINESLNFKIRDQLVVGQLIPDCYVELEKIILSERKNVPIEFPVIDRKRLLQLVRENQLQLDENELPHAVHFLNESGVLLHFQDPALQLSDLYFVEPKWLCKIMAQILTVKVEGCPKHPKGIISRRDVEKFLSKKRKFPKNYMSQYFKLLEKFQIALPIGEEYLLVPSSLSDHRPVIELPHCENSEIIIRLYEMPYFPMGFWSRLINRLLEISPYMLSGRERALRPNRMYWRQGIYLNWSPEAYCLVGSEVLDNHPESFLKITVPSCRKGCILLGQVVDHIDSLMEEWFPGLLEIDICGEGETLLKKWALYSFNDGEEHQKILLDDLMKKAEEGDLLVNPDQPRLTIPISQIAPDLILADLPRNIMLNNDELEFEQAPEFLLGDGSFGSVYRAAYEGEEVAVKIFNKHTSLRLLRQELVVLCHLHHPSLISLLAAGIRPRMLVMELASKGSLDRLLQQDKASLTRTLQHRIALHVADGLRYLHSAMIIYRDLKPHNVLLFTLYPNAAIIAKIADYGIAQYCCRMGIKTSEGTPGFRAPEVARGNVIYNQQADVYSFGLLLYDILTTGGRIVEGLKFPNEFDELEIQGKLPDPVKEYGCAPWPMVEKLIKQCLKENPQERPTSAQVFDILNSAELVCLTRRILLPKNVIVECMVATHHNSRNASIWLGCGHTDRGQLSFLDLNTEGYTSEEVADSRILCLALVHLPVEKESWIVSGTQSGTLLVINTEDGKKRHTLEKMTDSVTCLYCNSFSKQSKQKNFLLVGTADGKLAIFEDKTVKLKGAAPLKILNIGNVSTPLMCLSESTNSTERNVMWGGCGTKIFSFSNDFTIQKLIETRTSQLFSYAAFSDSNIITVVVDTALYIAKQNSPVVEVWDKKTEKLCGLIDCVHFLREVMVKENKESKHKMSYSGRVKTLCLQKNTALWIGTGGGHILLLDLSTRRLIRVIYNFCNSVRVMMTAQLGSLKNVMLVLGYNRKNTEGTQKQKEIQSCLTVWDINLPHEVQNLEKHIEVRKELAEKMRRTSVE

Structure (SMILES): COc1ccnc2[nH]cc(-c3cc(N)nc(N)c3)c12 [meriolin 16]
- residual kinase activity (BMPR1B; 0.03 µM): 91 % of control
- residual kinase activity (BMPR1B; 0.3 µM): 91 % of control
- residual kinase activity (CDC42BPA; 0.03 µM): 53 % of control
- residual kinase activity (CDC42BPA; 0.3 µM): 7 % of control
- residual kinase activity (CK1Δ; 0.03 µM): 77 % of control
- residual kinase activity (CK1Δ; 0.3 µM): 17 % of control
- residual kinase activity (CLK1; 0.03 µM): 11 % of control
- residual kinase activity (CLK1; 0.3 µM): 3 % of control
- residual kinase activity (ERBB4; 0.03 µM): 108 % of control
- residual kinase activity (ERBB4; 0.3 µM): 90 % of control
- residual kinase activity (FES; 0.03 µM): 93 % of control
- residual kinase activity (FES; 0.3 µM): 87 % of control
- residual kinase activity (GRK2; 0.03 µM): 96 % of control
- residual kinase activity (GRK2; 0.3 µM): 106 % of control
- residual kinase activity (GRK6; 0.03 µM): 98 % of control
- residual kinase activity (GRK6; 0.3 µM): 93 % of control
- residual kinase activity (LRRK2; 0.03 µM): 50 % of control
- residual kinase activity (LRRK2; 0.3 µM): 8 % of control
- residual kinase activity (PKMYT1; 0.03 µM): 32 % of control
- residual kinase activity (PKMYT1; 0.3 µM): 23 % of control
- residual kinase activity (PRK1; 0.03 µM): 84 % of control
- residual kinase activity (PRK1; 0.3 µM): 35 % of control
- residual kinase activity (VEGFR1; 0.03 µM): 110 % of control
- residual kinase activity (VEGFR1; 0.3 µM): 89 % of control
- residual kinase activity (ZAP70; 0.03 µM): 95 % of control
- residual kinase activity (ZAP70; 0.3 µM): 83 % of control

Structure (SMILES): c1ccc(CNc2cc(-c3c[nH]c4ncccc34)ccn2)cc1 [meriolin 36]
- residual kinase activity (BMPR1B; 0.3 µM): 75 % of control
- residual kinase activity (BMPR1B; 3 µM): 45 % of control
- residual kinase activity (CDC42BPA; 0.3 µM): 1 % of control
- residual kinase activity (CDC42BPA; 3 µM): 1 % of control
- residual kinase activity (CK1Δ; 0.3 µM): 43 % of control
- residual kinase activity (CK1Δ; 3 µM): 9 % of control
- residual kinase activity (CLK1; 0.3 µM): 4 % of control
- residual kinase activity (CLK1; 3 µM): 2 % of control
- residual kinase activity (ERBB4; 0.3 µM): 101 % of control
- residual kinase activity (ERBB4; 3 µM): 56 % of control
- residual kinase activity (FES; 0.3 µM): 83 % of control
- residual kinase activity (FES; 3 µM): 50 % of control
- residual kinase activity (GRK2; 0.3 µM): 99 % of control
- residual kinase activity (GRK2; 3 µM): 51 % of control
- residual kinase activity (GRK6; 0.3 µM): 96 % of control
- residual kinase activity (GRK6; 3 µM): 54 % of control
- residual kinase activity (LRRK2; 0.3 µM): 1 % of control
- residual kinase activity (LRRK2; 3 µM): 1 % of control
- residual kinase activity (PKMYT1; 0.3 µM): 39 % of control
- residual kinase activity (PKMYT1; 3 µM): 13 % of control
- residual kinase activity (PRK1; 0.3 µM): 17 % of control
- residual kinase activity (PRK1; 3 µM): 3 % of control
- residual kinase activity (VEGFR1; 0.3 µM): 83 % of control
- residual kinase activity (VEGFR1; 3 µM): 43 % of control
- residual kinase activity (ZAP70; 0.3 µM): 110 % of control
- residual kinase activity (ZAP70; 3 µM): 85 % of control
